Data as given in US20220296583A1, “COMPOSITIONS AND METHODS FOR TREATMENT OF OVARIAN AND BREAST CANCER” (Board of Regents, The University of Texas System, priority 2021, published 2022).

Legend:
[1] = tested on: OVCAR8, SKOv3, and OC316 ovarian cancer cell lines; assay: Annexin V/PI apoptosis, Compound B and carboplatin; assay type: cell-based; details: 72 h; flow cytometry
Experimental: Cells were dislodged and stained with Annexin V antibody and PI dye for flow cytometry. Representative images are shown on the left and the analysis of apoptotic population under different treatment conditions are on the right. (B) Effect of SIK2 knockout on carboplatin-induced apoptosis. SIK2 knockout (KO) and control cell lines were treated as in (A) and analyzed for apoptosis. The bars indicate the mean percentage of apoptotic cells with standard deviations.
After completion of incubation, cells were harvested and washed with PBS two times. After washing, cells were re-suspended in 100 μL Annexin-binding buffer containing propidium iodide (PI) and FITC Annexin-V (Invitrogen) and incubated at ambient temperature for 15 min in the dark. After incubation, 200 μL of Annexin-binding buffer was added and stained cells were analyzed using a Beckman Coulter's Gallios Flow Cytometer.
Many current cancer chemotherapies, including platinum-based drugs, exert their antitumor effect by triggering apoptosis in cancer cells. […] The inhibitor of apoptosis protein family (IAPs) includes an important group of proteins involved in the regulation of apoptosis. One member of this protein family, survivin, plays an important role in promoting tumor progression by deregulating apoptosis and cell division.

[2] = tested on: SKOv3 xenograft; assay: SKOv3 subcutaneous xenograft, Compound B, carboplatin and paclitaxel; assay type: in vivo, mice; details: SKOv3 s.c., 6 weeks
Experimental: After treatment as indicated in (A) for three weeks, mice were weighed, and intraperitoneal nodules were excised and weighed. […] Mice were treated with single, double, or triple agents for 6 weeks. Tumor was measured once a week until the tumor burden in control group reached maximum allowance. The graphs indicate the mean±standard deviation. Statistical significance is indicated by *p<0.05, **p<0.01, and ***p<0.0001.
Six-week-old female athymic nu/nu mice were purchased from Envigo. Experiments were reviewed and all procedures were performed according to an animal protocol approved by the Institutional Animal Care and Use Committee of UT MD Anderson Cancer Center. […] Carboplatin was administrated i.p. once a week at a dose of 25 mg/kg. […] Carboplatin was treated at a dose of 30 mg/kg once a week for six weeks. […] At end of six weeks, the mice were sacrificed by CO2. The mice were dissected immediately after death and the tumors were collected and weighed.
OVCAR8 cells were injected intraperitoneally (ip) into nu/nu mice. Treatment started 7 days post injection. […] At the conclusion of the treatment, the mice were sacrificed, and the tumor was dissected and weighed (FIG. 23A). […] The tumor volume was measured at indicated time points (FIG. 23D).

COc1c(F)cc(F)cc1-c1c[nH]c2ncc(-c3cnn(C4CCN(S(C)(=O)=O)CC4)c3)cc12 [Compound B, 3-(3,5-difluoro-2-methoxyphenyl)-5-(1-(1-(methylsulfonyl)piperidin-4-yl)-1H-pyrazol-4-yl)-1H-pyrrolo[2,3-b]pyridine] was tested, and the apoptosis [1] was “induced apoptosis as a single agent, but also enhanced carboplatin-induced apoptosis”, the “tumor growth (tumor volume)” value ([2]; Compound B 40 mg/kg) was “significantly inhibited tumor growth” and the “effect when added to carboplatin plus paclitaxel” value ([2]; p<0.01) was “further enhanced the combination treatment of carboplatin plus paclitaxel”.
